ChEMBL document CHEMBL1201862, “PubChem BioAssay data set” (2004)
Activity calls are given as the source filed them.

What was measured:
Format in all cases: functional
[1] = target: T1, High affinity choline transporter 1 (Homo sapiens, UniProt Q9GZV3); assay: CHT inhibitors, dose response, cell-based, 5-point CRC, membrane potential dye (AID 504840)
T1 sequence (Q9GZV3 whole entry): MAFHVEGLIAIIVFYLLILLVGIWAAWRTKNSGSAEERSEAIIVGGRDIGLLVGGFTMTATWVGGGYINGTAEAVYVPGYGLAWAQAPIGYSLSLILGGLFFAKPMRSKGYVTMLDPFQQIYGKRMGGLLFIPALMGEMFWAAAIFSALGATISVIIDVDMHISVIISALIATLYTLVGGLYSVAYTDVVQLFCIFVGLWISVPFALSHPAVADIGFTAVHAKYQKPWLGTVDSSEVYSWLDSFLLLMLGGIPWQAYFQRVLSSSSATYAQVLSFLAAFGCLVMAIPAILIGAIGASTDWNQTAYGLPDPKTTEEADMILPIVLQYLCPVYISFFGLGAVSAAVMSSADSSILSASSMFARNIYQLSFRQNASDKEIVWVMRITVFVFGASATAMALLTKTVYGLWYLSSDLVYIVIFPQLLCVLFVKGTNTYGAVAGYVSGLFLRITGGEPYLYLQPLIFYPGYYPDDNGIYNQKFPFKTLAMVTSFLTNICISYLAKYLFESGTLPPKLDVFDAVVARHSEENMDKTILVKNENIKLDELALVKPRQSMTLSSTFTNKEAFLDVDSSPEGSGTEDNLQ

[2] = target: T1, High affinity choline transporter 1; assay: CHT inhibitors, dose response, cell-based, 10-point CRC, membrane potential dye (AID 588401);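 further: membrane potential dye fluorescence of choline-evoked depolarization via CHT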
[3] = target: Tyrosine-protein kinase JAK2 (Homo sapiens, UniProt O60674);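 further: JAK2 tested as one member of a kinase panel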
[4] = target: Tyrosine-protein kinase JAK3 (Homo sapiens, UniProt P52333)
[5] = target: Serine/threonine-protein kinase Nek2 (Homo sapiens, UniProt P51955)
[6] = target: Cyclin-dependent kinase 5 (Homo sapiens, UniProt Q00535);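 further: CDK5 measured as one member of a kinase profiling panel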
[7] = target: Casein kinase I isoform alpha (Homo sapiens, UniProt P48729)
[8] = target: Calcium/calmodulin-dependent protein kinase type II subunit alpha (Homo sapiens, UniProt Q9UQM7); assay: Navigating the Kinome. Panel member name: CAMK2A
Activated CDC42 kinase 1 = Activated CDC42 kinase 1 (Homo sapiens, UniProt Q07912); assay: Navigating the Kinome. Panel member name: ACK1
[9] = target: Serine/threonine-protein kinase TAO1 (Homo sapiens, UniProt Q7L7X3)
[10] = target: Dual specificity tyrosine-phosphorylation-regulated kinase 1B (Homo sapiens, UniProt Q9Y463); assay: Navigating the Kinome. Panel member name: DYRK1B
[11] = target: Dual specificity protein kinase CLK2 (Homo sapiens, UniProt P49760)
[12] = target: Dual specificity mitogen-activated protein kinase kinase 1 (Homo sapiens, UniProt Q02750); assay: Navigating the Kinome. Panel member name: MAP2K1
LIM domain kinase 1 = LIM domain kinase 1 (Homo sapiens, UniProt P53667); assay: Navigating the Kinome. Panel member name: LIMK1
[13] = target: Mitogen-activated protein kinase 9 (Homo sapiens, UniProt P45984);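 further: value from a kinome panel profiling assay, MAPK9 panel entry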
[14] = target: 5'-AMP-activated protein kinase catalytic subunit alpha-1 (Homo sapiens, UniProt Q13131)
[15] = target: Platelet-derived growth factor receptor beta (Homo sapiens, UniProt P09619);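 further: value comes from a kinome panel, with PDGFRB tested as one panel member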
[16] = target: Tyrosine-protein kinase Fyn (Homo sapiens, UniProt P06241)
[17] = target: Serine/threonine-protein kinase Chk1 (Homo sapiens, UniProt O14757);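 further: measured as one member of a kinome-wide kinase profiling panel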
[18] = target: Leukocyte tyrosine kinase receptor (Homo sapiens, UniProt P29376); assay: Navigating the Kinome. Panel member name: LTK
[19] = target: Serine/threonine-protein kinase PAK 4 (Homo sapiens, UniProt O96013);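 further: value obtained within a kinome profiling panel in which PAK4 was one of the panel members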
[20] = target: Serine/threonine-protein kinase D3 (Homo sapiens, UniProt O94806);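 further: determined within a kinase panel screen, with PRKCN as the panel member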
[21] = target: BDNF/NT-3 growth factors receptor (Homo sapiens, UniProt Q16620);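 further: NTRK2 measured as one member of a broad kinome-wide kinase profiling panel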
[22] = target: cAMP-dependent protein kinase catalytic subunit PRKX (Homo sapiens, UniProt P51817)
[23] = target: Macrophage colony-stimulating factor 1 receptor (Homo sapiens, UniProt P07333);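 further: value comes from the Navigating the Kinome screening panel, CSF1R member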
[24] = target: Mitogen-activated protein kinase kinase kinase kinase 4 (Homo sapiens, UniProt O95819)
[25] = target: Dual specificity tyrosine-phosphorylation-regulated kinase 1A (Homo sapiens, UniProt Q13627);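 further: measured against DYRK1A as one member of a broad kinome profiling panel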
[26] = target: Leucine-rich repeat serine/threonine-protein kinase 2 (Homo sapiens, UniProt Q5S007);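 further: value from a broad kinome-wide panel profiling study in which LRRK2 was one of the kinases tested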
Aurora kinase A = Aurora kinase A (Homo sapiens, UniProt O14965);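 further: value from the Navigating the Kinome kinase panel profiling, panel entry STK6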
[27] = target: Glycogen synthase kinase-3 alpha (Homo sapiens, UniProt P49840);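 further: GSK3A result taken from a broad kinome-wide kinase panel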
[28] = target: Glycogen synthase kinase-3 beta (Homo sapiens, UniProt P49841);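 further: value comes from a broad kinome profiling panel, with GSK3B as the panel member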
[29] = target: Mitogen-activated protein kinase 8 (Homo sapiens, UniProt P45983);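 further: value comes from one member of a kinome-wide kinase profiling panel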
[30] = target: Serine/threonine-protein kinase TBK1 (Homo sapiens, UniProt Q9UHD2); assay: Navigating the Kinome. Panel member name: TBK1
[31] = target: Fibroblast growth factor receptor 1 (Homo sapiens, UniProt P11362)
[32] = target: Platelet-derived growth factor receptor alpha (Homo sapiens, UniProt P16234); assay: Navigating the Kinome. Panel member name: PDGFRA
[33] = target: High affinity nerve growth factor receptor (Homo sapiens, UniProt P04629);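 further: NTRK1 tested as one member of a kinome-wide profiling panel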
[34] = target: Receptor-type tyrosine-protein kinase FLT3 (Homo sapiens, UniProt P36888);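 further: FLT3 was tested as one member of a kinome-wide kinase panel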
[35] = target: Tyrosine-protein kinase Lck (Homo sapiens, UniProt P06239);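 further: lck was assayed as one member of a kinase panel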
[36] = target: Serine/threonine-protein kinase pim-1 (Homo sapiens, UniProt P11309)
[37] = target: Cyclin-dependent kinase 8 (Homo sapiens, UniProt P49336); assay: Navigating the Kinome. Panel member name: CDK8
[38] = target: cAMP-dependent protein kinase catalytic subunit alpha (Homo sapiens, UniProt P17612)
[39] = target: Vascular endothelial growth factor receptor 1 (Homo sapiens, UniProt P17948);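 further: measured within a kinome-wide profiling panel, FLT1 as the panel member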
[40] = target: Rho-associated protein kinase 1 (Homo sapiens, UniProt Q13464);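 further: measured within a broad kinome-wide panel profiling many kinases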
Aurora kinase B = Aurora kinase B (Homo sapiens, UniProt Q96GD4)
[41] = target: Death-associated protein kinase 3 (Homo sapiens, UniProt O43293);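 further: measured as one member of a kinome-wide profiling panel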
[42] = target: Dual specificity mitogen-activated protein kinase kinase 2 (Homo sapiens, UniProt P36507); assay: Navigating the Kinome. Panel member name: MAP2K2
[43] = target: Macrophage-stimulating protein receptor (Homo sapiens, UniProt Q04912); assay: Navigating the Kinome. Panel member name: MST1R
[44] = target: Cyclin-dependent kinase 7 (Homo sapiens, UniProt P50613);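 further: value comes from a kinome-wide kinase profiling panel in which CDK7 is one member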
[45] = target: Insulin-like growth factor 1 receptor (Homo sapiens, UniProt P08069); assay: Navigating the Kinome. Panel member name: IGF1R
[46] = target: Dual specificity protein kinase CLK4 (Homo sapiens, UniProt Q9HAZ1)
Activin receptor type-1 = Activin receptor type-1 (Homo sapiens, UniProt Q04771); assay: Navigating the Kinome. Panel member name: ACVR1
[47] = target: Mitogen-activated protein kinase 14 (Homo sapiens, UniProt Q16539);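 further: part of a kinome-wide panel, MAPK14 entry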
[48] = target: Tyrosine-protein kinase ABL1 (Homo sapiens, UniProt P00519)
[49] = target: Tyrosine-protein kinase receptor TYRO3 (Homo sapiens, UniProt Q06418);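 further: TYRO3 value obtained as one member of a kinome-wide profiling panel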
[50] = target: Vascular endothelial growth factor receptor 2 (Homo sapiens, UniProt P35968)
[51] = target: Mitogen-activated protein kinase kinase kinase kinase 2 (Homo sapiens, UniProt Q12851);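 further: measured as one member of a kinome-wide kinase panel, with MAP4K2 as the panel entry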
[52] = target: ALK tyrosine kinase receptor (Homo sapiens, UniProt Q9UM73);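 further: ALK tested as one member of a kinase panel screen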
[53] = target: Protein kinase C theta type (Homo sapiens, UniProt Q04759); assay: Navigating the Kinome. Panel member name: PRKCQ
[54] = target: Inhibitor of nuclear factor kappa-B kinase subunit epsilon (Homo sapiens, UniProt Q14164); assay: Navigating the Kinome. Panel member name: IKBKE
[55] = target: Cyclin-dependent kinase 9 (Homo sapiens, UniProt P50750);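 further: value from the CDK9 entry of a kinome-spanning kinase panel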

Dual specificity protein kinase CLK4, sequence (Q9HAZ1 whole entry): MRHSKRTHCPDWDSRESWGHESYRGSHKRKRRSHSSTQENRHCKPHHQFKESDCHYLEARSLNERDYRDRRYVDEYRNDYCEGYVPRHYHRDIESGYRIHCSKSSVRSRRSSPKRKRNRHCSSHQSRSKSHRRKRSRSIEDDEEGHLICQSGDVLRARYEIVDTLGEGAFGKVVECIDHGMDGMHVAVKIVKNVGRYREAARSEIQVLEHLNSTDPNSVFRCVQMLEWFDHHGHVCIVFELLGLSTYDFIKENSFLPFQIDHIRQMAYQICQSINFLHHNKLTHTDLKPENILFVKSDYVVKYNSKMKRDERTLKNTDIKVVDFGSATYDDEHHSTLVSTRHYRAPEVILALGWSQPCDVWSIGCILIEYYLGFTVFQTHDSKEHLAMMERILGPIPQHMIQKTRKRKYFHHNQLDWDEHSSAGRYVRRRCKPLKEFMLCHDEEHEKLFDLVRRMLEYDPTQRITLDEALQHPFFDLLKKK
Serine/threonine-protein kinase Nek2, sequence (P51955 whole entry): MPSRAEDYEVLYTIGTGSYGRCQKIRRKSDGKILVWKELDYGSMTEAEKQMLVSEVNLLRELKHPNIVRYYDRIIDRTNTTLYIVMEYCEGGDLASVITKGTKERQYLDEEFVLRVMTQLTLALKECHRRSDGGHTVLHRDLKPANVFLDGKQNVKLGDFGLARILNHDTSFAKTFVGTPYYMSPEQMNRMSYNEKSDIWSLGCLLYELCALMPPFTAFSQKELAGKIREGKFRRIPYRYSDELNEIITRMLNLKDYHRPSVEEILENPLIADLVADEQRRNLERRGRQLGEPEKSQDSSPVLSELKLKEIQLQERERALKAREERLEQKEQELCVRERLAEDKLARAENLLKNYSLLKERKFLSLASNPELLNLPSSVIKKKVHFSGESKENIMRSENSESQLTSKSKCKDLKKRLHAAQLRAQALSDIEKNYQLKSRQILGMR
Inhibitor of nuclear factor kappa-B kinase subunit epsilon, sequence (Q14164 whole entry): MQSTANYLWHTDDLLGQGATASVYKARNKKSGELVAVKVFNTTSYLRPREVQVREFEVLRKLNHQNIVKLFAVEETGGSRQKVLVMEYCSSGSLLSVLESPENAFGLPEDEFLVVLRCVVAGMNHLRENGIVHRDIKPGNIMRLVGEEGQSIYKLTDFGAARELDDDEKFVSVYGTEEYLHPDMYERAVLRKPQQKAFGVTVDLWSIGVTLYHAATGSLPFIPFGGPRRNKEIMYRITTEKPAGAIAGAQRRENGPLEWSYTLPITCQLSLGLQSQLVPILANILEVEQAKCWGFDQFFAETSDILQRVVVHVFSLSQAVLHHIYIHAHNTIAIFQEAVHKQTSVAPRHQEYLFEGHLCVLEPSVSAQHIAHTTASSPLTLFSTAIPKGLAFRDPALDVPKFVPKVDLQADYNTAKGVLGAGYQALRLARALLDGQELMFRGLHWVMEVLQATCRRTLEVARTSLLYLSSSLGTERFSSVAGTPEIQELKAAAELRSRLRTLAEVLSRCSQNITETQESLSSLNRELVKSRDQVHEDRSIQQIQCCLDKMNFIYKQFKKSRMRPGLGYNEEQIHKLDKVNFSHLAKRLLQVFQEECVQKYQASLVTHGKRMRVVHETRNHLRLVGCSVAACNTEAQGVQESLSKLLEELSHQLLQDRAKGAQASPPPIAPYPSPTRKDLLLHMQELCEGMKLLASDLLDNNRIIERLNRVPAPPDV
Rho-associated protein kinase 1, sequence (Q13464 whole entry): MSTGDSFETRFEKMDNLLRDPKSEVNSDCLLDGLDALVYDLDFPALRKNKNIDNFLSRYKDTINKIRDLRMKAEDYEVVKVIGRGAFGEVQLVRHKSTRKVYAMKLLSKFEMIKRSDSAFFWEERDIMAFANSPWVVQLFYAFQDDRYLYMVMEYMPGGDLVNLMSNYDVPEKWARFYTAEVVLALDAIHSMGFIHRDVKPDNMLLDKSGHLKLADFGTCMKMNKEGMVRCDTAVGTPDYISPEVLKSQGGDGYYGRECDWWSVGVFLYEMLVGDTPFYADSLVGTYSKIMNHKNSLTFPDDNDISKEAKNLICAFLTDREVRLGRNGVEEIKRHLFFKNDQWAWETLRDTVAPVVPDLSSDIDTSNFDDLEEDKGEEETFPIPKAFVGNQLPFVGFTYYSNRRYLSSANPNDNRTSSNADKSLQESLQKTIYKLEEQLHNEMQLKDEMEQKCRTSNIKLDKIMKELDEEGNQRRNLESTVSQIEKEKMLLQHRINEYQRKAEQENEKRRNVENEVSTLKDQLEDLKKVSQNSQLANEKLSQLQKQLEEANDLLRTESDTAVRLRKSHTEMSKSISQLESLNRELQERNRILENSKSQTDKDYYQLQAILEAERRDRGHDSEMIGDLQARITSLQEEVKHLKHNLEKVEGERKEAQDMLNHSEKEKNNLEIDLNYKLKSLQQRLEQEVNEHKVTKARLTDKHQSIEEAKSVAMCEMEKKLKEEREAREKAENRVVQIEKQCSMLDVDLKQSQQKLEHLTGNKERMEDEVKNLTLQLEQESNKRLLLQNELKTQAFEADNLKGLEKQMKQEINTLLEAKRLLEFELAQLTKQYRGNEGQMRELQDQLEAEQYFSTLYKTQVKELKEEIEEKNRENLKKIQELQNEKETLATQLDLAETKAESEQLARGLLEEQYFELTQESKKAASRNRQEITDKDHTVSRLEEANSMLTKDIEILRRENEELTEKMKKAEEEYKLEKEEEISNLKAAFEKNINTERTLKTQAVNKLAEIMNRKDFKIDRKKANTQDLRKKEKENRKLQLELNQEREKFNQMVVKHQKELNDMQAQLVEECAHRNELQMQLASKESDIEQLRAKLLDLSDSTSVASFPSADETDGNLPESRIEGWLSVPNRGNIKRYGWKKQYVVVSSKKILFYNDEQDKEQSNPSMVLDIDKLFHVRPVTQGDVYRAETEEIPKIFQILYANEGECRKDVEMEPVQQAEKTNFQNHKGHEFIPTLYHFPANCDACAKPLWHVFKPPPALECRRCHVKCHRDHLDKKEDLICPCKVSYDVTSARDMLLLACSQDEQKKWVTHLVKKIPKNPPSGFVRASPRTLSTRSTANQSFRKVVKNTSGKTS
Serine/threonine-protein kinase TBK1, sequence (Q9UHD2 whole entry): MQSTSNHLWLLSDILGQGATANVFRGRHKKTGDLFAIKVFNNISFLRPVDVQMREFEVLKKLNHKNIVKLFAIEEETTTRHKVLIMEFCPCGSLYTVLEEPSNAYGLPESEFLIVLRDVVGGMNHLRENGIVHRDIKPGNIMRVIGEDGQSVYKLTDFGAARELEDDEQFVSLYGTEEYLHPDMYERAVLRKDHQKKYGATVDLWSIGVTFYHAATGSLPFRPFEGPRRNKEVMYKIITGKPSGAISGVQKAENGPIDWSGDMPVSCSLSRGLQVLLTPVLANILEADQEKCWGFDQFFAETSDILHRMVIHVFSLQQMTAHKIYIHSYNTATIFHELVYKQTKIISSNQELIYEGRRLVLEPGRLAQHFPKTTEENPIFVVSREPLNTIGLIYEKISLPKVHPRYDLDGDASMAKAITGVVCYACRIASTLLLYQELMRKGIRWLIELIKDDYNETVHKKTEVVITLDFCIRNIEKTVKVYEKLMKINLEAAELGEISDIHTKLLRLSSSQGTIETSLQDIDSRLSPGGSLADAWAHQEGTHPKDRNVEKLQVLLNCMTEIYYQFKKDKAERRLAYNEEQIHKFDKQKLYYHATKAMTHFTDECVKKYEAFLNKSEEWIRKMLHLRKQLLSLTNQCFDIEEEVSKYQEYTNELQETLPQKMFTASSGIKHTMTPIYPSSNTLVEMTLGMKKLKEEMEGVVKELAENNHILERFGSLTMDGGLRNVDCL
Cyclin-dependent kinase 7, sequence (P50613 whole entry): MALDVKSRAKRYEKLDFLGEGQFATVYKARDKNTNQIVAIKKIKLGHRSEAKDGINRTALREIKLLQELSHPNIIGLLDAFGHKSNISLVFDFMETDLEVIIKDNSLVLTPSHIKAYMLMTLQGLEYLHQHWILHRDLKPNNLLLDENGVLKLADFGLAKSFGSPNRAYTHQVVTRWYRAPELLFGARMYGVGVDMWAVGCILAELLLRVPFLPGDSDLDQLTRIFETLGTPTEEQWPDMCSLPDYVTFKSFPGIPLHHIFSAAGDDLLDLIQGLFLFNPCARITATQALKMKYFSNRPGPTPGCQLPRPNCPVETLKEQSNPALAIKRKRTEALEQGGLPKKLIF
cAMP-dependent protein kinase catalytic subunit PRKX, sequence (P51817 whole entry): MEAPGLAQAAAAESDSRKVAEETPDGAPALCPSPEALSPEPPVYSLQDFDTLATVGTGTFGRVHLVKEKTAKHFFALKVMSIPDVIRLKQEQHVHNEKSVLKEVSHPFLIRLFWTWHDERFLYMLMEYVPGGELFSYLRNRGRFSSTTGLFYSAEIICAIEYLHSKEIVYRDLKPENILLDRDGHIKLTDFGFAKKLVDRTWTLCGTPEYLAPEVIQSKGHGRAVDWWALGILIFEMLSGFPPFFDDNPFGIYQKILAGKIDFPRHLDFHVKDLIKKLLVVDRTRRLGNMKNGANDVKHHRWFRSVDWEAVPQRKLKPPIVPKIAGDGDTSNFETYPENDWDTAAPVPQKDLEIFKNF
Dual specificity mitogen-activated protein kinase kinase 2, sequence (P36507 whole entry): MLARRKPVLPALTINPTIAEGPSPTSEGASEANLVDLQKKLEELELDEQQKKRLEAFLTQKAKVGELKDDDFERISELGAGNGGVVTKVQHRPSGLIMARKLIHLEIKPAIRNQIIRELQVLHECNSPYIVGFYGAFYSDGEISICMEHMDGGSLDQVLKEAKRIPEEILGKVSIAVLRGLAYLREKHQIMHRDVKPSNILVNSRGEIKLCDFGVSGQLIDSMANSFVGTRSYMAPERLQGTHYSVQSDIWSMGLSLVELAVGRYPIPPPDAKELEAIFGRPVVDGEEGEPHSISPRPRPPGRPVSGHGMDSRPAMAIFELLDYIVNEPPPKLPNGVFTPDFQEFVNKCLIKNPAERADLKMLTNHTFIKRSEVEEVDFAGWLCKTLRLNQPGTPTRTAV

COc1ccc(C(CNC(=O)c2cccc(S(=O)(=O)Nc3ccc(C)cc3)c2)N2CCCCC2)cc1 (stereo not given)
active: IC50 [1] 8.72 µM | IC50 [2] 5.77 µM

N#Cc1ccc2c(c1)C(c1ccc3c(n1)CCCC3O)C(=O)N2 (stereo not given)
active: Ki [7] 0.0398 µM | Ki [10] 0.126 µM | Ki [11] 0.398 µM | Ki [12] 1 µM | Ki [14] 1.26 µM | Ki [15] 0.316 µM | Ki [18] 0.501 µM | Ki [20] 3.16 µM | Ki [21] 2 µM | Ki [23] 0.126 µM | Ki [24] 0.316 µM | Ki [25] 0.1 µM | Ki [26] 1.26 µM | Ki (Aurora kinase A) 1.58 µM | Ki [27] 0.0794 µM | Ki [28] 0.0316 µM | Ki [29] 1.26 µM | Ki [30] 0.794 µM | Ki [31] 3.16 µM | Ki [34] 0.1 µM | Ki [39] 1.58 µM | Ki [40] 2 µM | Ki (Aurora kinase B) 0.501 µM | Ki [41] 1.26 µM | Ki [42] 0.794 µM | Ki [43] 0.316 µM | Ki [44] 0.0398 µM | Ki [46] 0.0316 µM | Ki (Activin receptor type-1) 2 µM | Ki [49] 2.51 µM | Ki [50] 0.158 µM | Ki [51] 1.58 µM | Ki [52] 2.51 µM | Ki [54] 2 µM | Ki [55] 0.631 µM
inactive: Ki [3] > 2.51 µM | Ki [4] > 5.01 µM | Ki [5] > 3.16 µM | Ki [6] > 3.16 µM | Ki [8] > 3.98 µM | Ki (Activated CDC42 kinase 1) > 3.98 µM | Ki [9] > 6.31 µM | Ki (LIM domain kinase 1) > 3.16 µM | Ki [13] > 3.98 µM | Ki [16] > 6.31 µM | Ki [17] > 3.16 µM | Ki [19] > 5.01 µM | Ki [22] > 3.16 µM | Ki [32] > 2.51 µM | Ki [33] > 3.16 µM | Ki [35] > 6.31 µM | Ki [36] > 6.31 µM | Ki [37] > 3.98 µM | Ki [38] > 1.26 µM | Ki [45] > 2.51 µM | Ki [47] > 3.98 µM | Ki [48] > 2.51 µM | Ki [53] > 2.51 µM
